A word on the inhibition in vivo: it is how much of the control response was suppressed.

Data set [1] concerns Rattus norvegicus. The data set can be described thus: Potency index, Rattus norvegicus (rat)io of ibuprofen anti-inflammatory activity to compound anti-inflammatory activity in Wistar Rattus norvegicus (rat) at 70 mg/kg, po administered 1 hr prior to carrageenan-challenge measured after 4 hr by plethysmometer analysis. In kind it is functional.
For data set [2], the system named is Rattus norvegicus. The data set is described as follows: Anti-inflammatory activity in Wistar Rattus norvegicus (rat) assessed as inhibition of carrageenan-induced paw edema at 70 mg/kg, po administered 1 hr prior to carrageenan-challenge measured after 4 hr by plethysmometer analysis. In kind it is functional. A general note: Carrageenan injected into the paw causes an acute inflammation.

For data set [3], the system named is Rattus norvegicus. The data set is described as follows: Anti-inflammatory activity in Wistar Rattus norvegicus (rat) assessed as inhibition of carrageenan-induced paw edema at 70 mg/kg, po administered 1 hr prior to carrageenan-challenge measured after 3 hr by plethysmometer analysis. In kind it is functional.
Data set [4] has as its system Rattus norvegicus. The data set is described as follows: Hepatotoxicity in Wistar albino Rattus norvegicus (rat) assessed as serum total albumin level at 210 mg/kg, po qd for 15 days (reference value: 1.63 +/-0.02 g/dl). In kind it is toxicity, organism-based. Also on record: dose 210 mg/kg, route oral. The conditions noted are these: in vivo, 360 h.
In data set [5] the test system is Rattus norvegicus. The data set can be described thus: Hepatotoxicity in Wistar albino Rattus norvegicus (rat) assessed as serum total protein level at 210 mg/kg, po qd for 15 days (reference value: 1.72 +/-0.02 g/dl). In kind it is toxicity, organism-based. Details: dose 210 mg/kg, route oral. The conditions noted are these: in vivo, 360 h.
The test system of data set [6] is Rattus norvegicus. The data set is described as follows: Hepatotoxicity in Wistar albino Rattus norvegicus (rat) assessed as serum alkaline phosphatase activity at 210 mg/kg, po qd for 15 days. In kind it is toxicity, organism-based. Details: dose 210 mg/kg, route oral. To be noted: in vivo, 360 h.
The subject of data set [7] is Rattus norvegicus. The data set can be described thus: Hepatotoxicity in Wistar albino Rattus norvegicus (rat) assessed as serum glutamate pyruvate transaminase activity at 210 mg/kg, po qd for 15 days (reference value: 32.46 +/-0.76 units/ml). In kind it is toxicity, organism-based. Details: dose 210 mg/kg, route oral. To be noted: in vivo, 360 h.
For data set [8], the system named is Rattus norvegicus. The data set can be described thus: Hepatotoxicity in Wistar albino Rattus norvegicus (rat) assessed as serum glutamate oxaloacetate transaminase activity at 210 mg/kg, po qd for 15 days (reference value: 143.71 +/-1.10 units/ml). In kind it is toxicity, organism-based. Also on record: dose 210 mg/kg, route oral. To be noted: in vivo, 360 h.

Data set [9] concerns Rattus norvegicus. The data set can be described thus: Effect on lipid peroxidation in Wistar Rattus norvegicus (rat) gastric mucosa assessed as malondialdehyde content at 210 mg/kg, po measured per 100 mg of tissue by UV spectrophotometric analysis (reference value: 3.26 +/-0.01 nmol). In kind it is ADME, organism-based. Details: dose 210 mg/kg, route oral. To be noted: in vivo.

Data set [10] deals with Rattus norvegicus. The data set can be described thus: Gastrointestinal toxicity in Wistar Rattus norvegicus (rat) assessed as ulcerogenicity index at 210 mg/kg, po (reference value: 0 No unit). In kind it is organism-based. Also on record: dose 210 mg/kg, route oral. The conditions noted are these: in vivo.
The subject of data set [11] is Mus musculus. The data set can be described thus: Analgesic activity in Swiss albino Mus musculus (mouse) assessed as inhibition of pain at 70 mg/kg, po measured after 4 hr by tail immersion method. In kind it is functional.
Data set [12] deals with Mus musculus. The data set is described as follows: Potency index, ratio of ibuprofen analgesic activity to compound analgesic in Swiss albino Mus musculus (mouse) at 70 mg/kg, po measured after 4 hr by tail immersion method. In kind it is functional.
Data set [13] relates to Mus musculus. The data set can be described thus: Analgesic activity in Swiss albino Mus musculus (mouse) assessed as time required for tail withdrawal at 70 mg/kg, po measured after 4 hr by tail immersion method. In kind it is functional.
For data set [14], the system named is Rattus norvegicus. The data set can be described thus: Hepatotoxicity in Wistar albino Rattus norvegicus (rat) assessed as hepatocyte with clearing of cytoplasm and compression of sinusoidal spaces at 210 mg/kg, po qd for 15 days measured after 24 hr of last dosage of drug by hematoxylin-eosin staining based light microscopy. In kind it is toxicity, organism-based, Sinusoidal space. Details: dose 210 mg/kg, route oral. The conditions noted are these: hepatocytes.

The test system of data set [15] is Rattus norvegicus. The data set can be described thus: Hepatotoxicity in Wistar albino Rattus norvegicus (rat) assessed as hepatocyte necrosis and degeneRattus norvegicus (rat)ion at 210 mg/kg, po qd for 15 days measured after 24 hr of last dosage of drug by hematoxylin-eosin staining based light microscopy. Also on record: dose 210 mg/kg, route oral. The conditions noted are these: hepatocytes. In kind it is toxicity, organism-based.

Take `Cc1ccccc1-c1nnc(Nc2nc3ccc(Cl)cc3s2)o1`: the Ratio in [1] is reported as 0.45. For the same compound, the inhibition in vivo at 70 mg/kg in data set [2] was found to be 37.7%; in data set [3] it was 23.9%.

`Clc1ccc2nc(Nc3nnc(-c4ccccc4Cl)o3)sc2c1`: in [1], the Ratio is 0.64. In addition, the inhibition in vivo at 70 mg/kg in [2] came out at 53.2%; in data set [3] it was 53%.

For `Clc1ccc2nc(Nc3nnc4sc(Oc5ccccc5)nn34)sc2c1`, the Activity in data set [4] was 1.74 g/dL; in [5], 1.79 g/dL; in data set [6] it was “Non-toxic”; in [7] it was 28.33 U/ml; in data set [8], 131.18 U/ml; in [9], 3.04 nmol. The Activity entry in [14] is on record as “Toxic”; in data set [15], “Non-toxic”. Also, the UI in [10] came out at 0.666. Further, the inhibition in vivo at 70 mg/kg in data set [11] amounted to 75%; in data set [2], 89.7%; in [3] it was 78.3%. Further, the Ratio in [12] is reported as 0.91; in [1], 1.08. Further, the Time in data set [13] was 2.17 s.

Turning to `Sc1nnc(Nc2nc3ccc(Cl)cc3s2)o1`, the Activity in [9] was 9.04 nmol. Also, the UI in data set [10] is on record as 2.166. Moreover, the inhibition in vivo at 70 mg/kg was 72.3% in data set [11], 69.8% in data set [2] and 61.7% in [3]. For the same compound, the results for the Ratio in [12] and in [1] were 0.88 and 0.84, respectively. The Time in data set [13] is on record as 2.24 s.

`Clc1ccc(-c2nn3c(Nc4nc5ccc(Cl)cc5s4)nnc3s2)c(Cl)c1`: the Activity in data set [9] is 5.74 nmol. The UI in [10] turned out to be 0.925. The inhibition in vivo at 70 mg/kg in data set [11] is 75.4%; in [2], 89.6%; in data set [3] it was 80%. Further, the Ratio in data set [12] is given as 0.92; in [1], 1.08. For the same compound, the Time in [13] is on record as 2.21 s.

As for `CC(C)Cc1ccc(C(C)C(=O)O)cc1` (stereo not given) [IBUPROFEN], the Activity is 1.71 g/dL in data set [4]; 1.74 g/dL in data set [5]; “Toxic” in data set [6]; 34.26 U/ml in data set [7]; 140.14 U/ml in data set [8]; 7.51 nmol in [9]. Besides, the UI in data set [10] is 2.315. Besides, the results for the inhibition in vivo at 70 mg/kg in [11], in data set [2] and in [3] were 73.5%, 82.7% and 78.2%, respectively. Moreover, the Time in data set [13] stood at 2.6 s.

Consider `Clc1ccc2nc(Nc3nnc4sc(-c5ccccc5)nn34)sc2c1`, for which the Ratio in data set [1] is given as 0.7. The inhibition in vivo at 70 mg/kg in data set [2] worked out at 57.9%; in data set [3] it was 48.3%.

In the case of `Clc1ccc2nc(Nc3nnc4sc(-c5ccccc5Cl)nn34)sc2c1`, in data set [1], the Ratio turned out to be 0.61. Besides, the inhibition in vivo at 70 mg/kg in data set [2] was 50.8%; in [3], 41.7%.

Take `CC(=O)Oc1ccccc1-c1nn2c(Nc3nc4ccc(Cl)cc4s3)nnc2s1`: the Ratio in data set [1] turned out to be 0.24. Moreover, the figures for the inhibition in vivo at 70 mg/kg in data set [2] and in [3] were 20.6% and 10%, respectively.

On to `CC(=O)Oc1ccccc1-c1nnc(Nc2nc3ccc(Cl)cc3s2)o1`, for which the Ratio in [1] was 0.61. The inhibition in vivo at 70 mg/kg in [2] was determined as 50.8%; in [3], 31%.

For `Clc1ccc2nc(Nc3nnc(Oc4ccccc4)o3)sc2c1`, the Activity in data set [9] stood at 9.1 nmol. Besides, the UI in data set [10] was found to be 1.083. For the same compound, the inhibition in vivo at 70 mg/kg in data set [11] was 52%; in data set [2] it was 88.8%; in [3], 74.2%. For the same compound, the Ratio in data set [12] is recorded as 0.63; in data set [1], 1.07. Besides, in [13], the Time was determined as 1.9 s.

`CC.O=[N+]([O-])c1ccc(-c2nnc(Nc3nc4ccc(Cl)cc4s3)o2)cc1`: in [1], the Ratio was determined as 0.39. Besides, the values for the inhibition in vivo at 70 mg/kg in [2] and in data set [3] were 32.5% and 19.2%, respectively.

`Clc1ccc(-c2nnc(Nc3nc4ccc(Cl)cc4s3)o2)c(Cl)c1`: the Activity is 1.7 g/dL in data set [4]; 1.75 g/dL in [5]; “Non-toxic” in [6]; 30.74 U/ml in data set [7]; 138.42 U/ml in [8]; 3.29 nmol in data set [9]. Moreover, the Activity entry is “Toxic” in [14] and “Non-toxic” in data set [15]. Besides, the UI in data set [10] turned out to be 0.917. In addition, the inhibition in vivo at 70 mg/kg in [11] worked out at 79%; in [2], 87.1%; in data set [3] it was 80%. For the same compound, the Ratio in [12] is 0.96; in [1], 1.05. For the same compound, in data set [13], the Time came to 2.22 s.

With `Clc1ccc2nc(Nc3nnc(-c4ccccc4)o3)sc2c1`, the Activity in data set [9] came to 4.47 nmol. Further, in data set [10], the UI came to 1.667. Moreover, the inhibition in vivo at 70 mg/kg in [11] turned out to be 61.1%; in data set [2] it was 88.3%; in [3], 78.8%. Also, the Ratio was found to be 0.74 in data set [12] and 1.06 in data set [1]. For the same compound, the Time in [13] was determined as 1.45 s.

Take `O=[N+]([O-])c1ccc(-c2nn3c(Nc4nc5ccc(Cl)cc5s4)nnc3s2)cc1`: the Ratio in data set [1] is given as 0.8. Besides, the inhibition in vivo at 70 mg/kg in data set [2] was 66.7%; in data set [3] it was 53.3%.

As for `Cc1ccccc1-c1nn2c(Nc3nc4ccc(Cl)cc4s3)nnc2s1`, the Activity in data set [9] turned out to be 7.44 nmol. For the same compound, the UI in [10] stood at 1.583. Moreover, the inhibition in vivo at 70 mg/kg in [11] turned out to be 76.9%; in data set [2] it was 88.8%; in data set [3] it was 77.5%. The Ratio in data set [12] is on record as 0.93; in data set [1], 1.07. Moreover, the Time in data set [13] is 2.83 s.

The record behind these values is ChEMBL document CHEMBL3046129, “Synthesis and pharmacological evaluation of N-(6-chlorobenzo[d]thiazol-2-yl)hydrazine carboxamide derivatives of benzothiazole” (Med Chem Res, 2013).
